# Literature values in patent US11612595B2, “Compositions and methods for treating rheumatoid arthritis” (Generos Biopharma Ltd., priority 2017, dated 2023).
# Assays:
# SH2 domain of STAT1 = target: T1, SH2 domain of STAT1 (Homo sapiens, UniProt P42224); settings: read-out: IC50 towards the SH2 domain of STAT1; cited from earlier work
# T1 sequence (P42224 1-750): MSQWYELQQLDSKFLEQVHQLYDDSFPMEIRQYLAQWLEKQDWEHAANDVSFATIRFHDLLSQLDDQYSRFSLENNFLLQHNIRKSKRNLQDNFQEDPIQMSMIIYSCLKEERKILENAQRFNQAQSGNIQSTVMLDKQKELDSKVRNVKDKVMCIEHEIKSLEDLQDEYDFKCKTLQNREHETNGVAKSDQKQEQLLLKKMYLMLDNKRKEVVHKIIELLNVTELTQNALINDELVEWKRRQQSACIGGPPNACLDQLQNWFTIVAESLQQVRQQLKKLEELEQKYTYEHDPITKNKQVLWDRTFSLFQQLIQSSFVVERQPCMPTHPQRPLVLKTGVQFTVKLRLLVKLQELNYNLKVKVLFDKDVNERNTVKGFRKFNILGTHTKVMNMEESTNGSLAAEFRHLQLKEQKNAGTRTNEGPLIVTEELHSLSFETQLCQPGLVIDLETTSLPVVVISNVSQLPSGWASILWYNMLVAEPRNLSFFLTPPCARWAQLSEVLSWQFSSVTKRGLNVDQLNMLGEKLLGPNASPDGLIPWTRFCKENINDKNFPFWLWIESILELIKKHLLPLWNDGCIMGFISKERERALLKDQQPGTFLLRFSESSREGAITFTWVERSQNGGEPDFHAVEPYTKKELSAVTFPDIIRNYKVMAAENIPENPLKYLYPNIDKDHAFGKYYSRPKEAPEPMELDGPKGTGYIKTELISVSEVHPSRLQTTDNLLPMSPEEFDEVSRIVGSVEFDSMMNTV
# STAT5 [1] = target: T2, STAT5 (Homo sapiens, UniProt P42229+P51692); parameters: endogenous in cells; host or cells: K562 nuclear extract; settings: K562 nuclear extract; cited from earlier work
# T2 sequence (P42229 1-794): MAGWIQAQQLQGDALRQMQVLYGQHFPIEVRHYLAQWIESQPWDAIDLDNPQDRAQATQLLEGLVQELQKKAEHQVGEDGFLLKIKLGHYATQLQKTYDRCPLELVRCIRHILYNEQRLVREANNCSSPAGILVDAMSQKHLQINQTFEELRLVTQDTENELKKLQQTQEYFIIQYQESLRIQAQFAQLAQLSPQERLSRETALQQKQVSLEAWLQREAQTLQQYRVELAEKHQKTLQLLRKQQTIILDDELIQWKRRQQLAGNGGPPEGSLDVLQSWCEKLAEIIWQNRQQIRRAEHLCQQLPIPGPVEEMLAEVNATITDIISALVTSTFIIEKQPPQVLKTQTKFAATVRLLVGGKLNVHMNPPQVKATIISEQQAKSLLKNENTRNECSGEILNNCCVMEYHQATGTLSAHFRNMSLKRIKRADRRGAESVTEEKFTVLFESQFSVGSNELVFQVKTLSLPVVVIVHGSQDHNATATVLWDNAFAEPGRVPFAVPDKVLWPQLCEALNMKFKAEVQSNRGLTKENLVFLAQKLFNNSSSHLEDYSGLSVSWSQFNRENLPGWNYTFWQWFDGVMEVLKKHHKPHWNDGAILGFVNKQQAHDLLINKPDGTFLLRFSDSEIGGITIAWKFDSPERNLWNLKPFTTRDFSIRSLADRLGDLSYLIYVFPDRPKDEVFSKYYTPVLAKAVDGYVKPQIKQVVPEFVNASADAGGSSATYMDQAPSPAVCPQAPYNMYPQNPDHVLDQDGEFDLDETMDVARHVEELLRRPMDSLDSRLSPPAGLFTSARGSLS
# T2 sequence (P51692 1-787): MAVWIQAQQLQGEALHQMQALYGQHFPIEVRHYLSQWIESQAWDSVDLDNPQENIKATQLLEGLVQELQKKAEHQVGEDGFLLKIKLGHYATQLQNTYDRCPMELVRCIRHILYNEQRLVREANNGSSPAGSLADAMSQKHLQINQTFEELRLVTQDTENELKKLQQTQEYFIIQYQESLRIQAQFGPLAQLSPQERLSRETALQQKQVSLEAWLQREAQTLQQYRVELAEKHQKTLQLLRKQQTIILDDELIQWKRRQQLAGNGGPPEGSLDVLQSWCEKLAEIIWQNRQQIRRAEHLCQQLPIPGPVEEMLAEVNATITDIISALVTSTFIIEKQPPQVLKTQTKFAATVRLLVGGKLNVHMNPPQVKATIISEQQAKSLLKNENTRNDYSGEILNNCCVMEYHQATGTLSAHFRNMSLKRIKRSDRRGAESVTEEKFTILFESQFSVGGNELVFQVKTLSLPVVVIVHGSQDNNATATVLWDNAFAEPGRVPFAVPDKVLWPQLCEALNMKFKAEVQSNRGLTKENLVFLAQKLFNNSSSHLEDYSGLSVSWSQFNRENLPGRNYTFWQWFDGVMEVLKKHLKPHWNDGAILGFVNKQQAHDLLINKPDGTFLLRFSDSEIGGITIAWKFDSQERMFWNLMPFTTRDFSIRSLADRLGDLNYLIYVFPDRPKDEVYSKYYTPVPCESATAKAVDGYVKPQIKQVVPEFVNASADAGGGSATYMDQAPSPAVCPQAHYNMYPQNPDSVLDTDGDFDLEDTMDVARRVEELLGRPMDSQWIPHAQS
# STAT5 [2] = target: T2, STAT5; parameters: in Bcr-Abl+ K562 and KU812 cultures; endogenous in cells; host or cells: K562 and KU812 cells; settings: 5 to 10 μM for 3 h; Bcr-Abl+ K562 and KU812 cultures; cited from earlier work
SMILES,IC50 (SH2 domain of STAT1),STAT5/STAT5 DNA binding activity (STAT5 [1]),constitutive STAT5 Tyr694 phosphorylation (STAT5 [2])
"O=C(N/N=C/c1coc2ccccc2c1=O)c1cccnc1 [nicotinohydrazide, N′-((4-Oxo-4H-chromen-3-yl)methylene)nicotinohydrazide]",> 500 µM,blocks,
"O=c1[nH]c2ccccc2n1C1CCN(CCCC(c2ccc(F)cc2)c2ccc(F)cc2)CC1 [pimozide, 1-[1-[4,4-bis(4-fluorophenyl)butyl]-4-piperidinyl]-1,3-dihydro-2H-benzimidazole-2-one]",,,inhibits
